Assay results: patent US11040981B2, “Pyrrolotriazine compounds and methods of inhibiting TAM kinases” (Syros Pharmaceuticals, Inc., priority 2017, dated 2021)

Legend:
[1] = target: T1, MERTK (Homo sapiens, UniProt Q12866); assay: TR-FRET kinase activity assay, MERTK; format: biochemical; conditions: for IC50: TR-FRET activity assay, ATP at Km, 60 minutes, read-out: Mer IC50; for FLT3/Mer ratio (FLT3 IC50/Mer IC50): ratio of Mer to FLT3: FLT3 IC50/Mer IC50
T1 sequence (Q12866 21-999): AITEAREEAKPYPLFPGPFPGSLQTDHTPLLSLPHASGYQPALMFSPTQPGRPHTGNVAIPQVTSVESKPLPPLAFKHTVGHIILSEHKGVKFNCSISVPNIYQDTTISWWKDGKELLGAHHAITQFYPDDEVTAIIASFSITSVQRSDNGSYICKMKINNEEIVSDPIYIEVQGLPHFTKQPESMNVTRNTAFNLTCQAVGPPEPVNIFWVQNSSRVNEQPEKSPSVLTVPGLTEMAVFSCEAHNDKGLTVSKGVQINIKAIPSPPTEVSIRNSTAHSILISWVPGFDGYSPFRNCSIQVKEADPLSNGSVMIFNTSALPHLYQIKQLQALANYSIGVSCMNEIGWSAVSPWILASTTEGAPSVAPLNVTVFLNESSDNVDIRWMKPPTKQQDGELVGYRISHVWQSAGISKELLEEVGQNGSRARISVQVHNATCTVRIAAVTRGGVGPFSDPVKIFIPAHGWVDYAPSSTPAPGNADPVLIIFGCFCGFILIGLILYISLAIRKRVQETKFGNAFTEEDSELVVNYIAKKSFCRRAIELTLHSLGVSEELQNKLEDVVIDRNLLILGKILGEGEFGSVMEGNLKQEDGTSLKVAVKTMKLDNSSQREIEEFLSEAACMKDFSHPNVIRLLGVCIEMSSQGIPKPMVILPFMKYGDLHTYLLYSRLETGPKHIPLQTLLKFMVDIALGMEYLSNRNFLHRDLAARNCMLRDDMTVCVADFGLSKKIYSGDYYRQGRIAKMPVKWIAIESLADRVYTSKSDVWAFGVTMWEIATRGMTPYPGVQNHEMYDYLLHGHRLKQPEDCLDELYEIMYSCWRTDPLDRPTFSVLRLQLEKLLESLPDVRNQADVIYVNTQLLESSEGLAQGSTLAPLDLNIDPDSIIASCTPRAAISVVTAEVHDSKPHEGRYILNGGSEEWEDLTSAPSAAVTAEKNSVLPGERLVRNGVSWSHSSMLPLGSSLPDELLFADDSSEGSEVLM
How it was run: (§1)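 Compounds were tested against each kinase with ATP set at its own Km and a labelled tyrosine peptide substrate. Following one hour at room temperature in buffer containing 10 mM MgCl2 and 1 mM DTT, phosphorylated product was detected by Europium antibody TR-FRET after EDTA quench, and IC50 values were calculated.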

[2] = target: T2, TYRO3 (Homo sapiens, UniProt Q06418); assay: TR-FRET kinase activity assay, TYRO3; format: biochemical; conditions: ATP at Km, 60 minutes
T2 sequence (Q06418 41-890): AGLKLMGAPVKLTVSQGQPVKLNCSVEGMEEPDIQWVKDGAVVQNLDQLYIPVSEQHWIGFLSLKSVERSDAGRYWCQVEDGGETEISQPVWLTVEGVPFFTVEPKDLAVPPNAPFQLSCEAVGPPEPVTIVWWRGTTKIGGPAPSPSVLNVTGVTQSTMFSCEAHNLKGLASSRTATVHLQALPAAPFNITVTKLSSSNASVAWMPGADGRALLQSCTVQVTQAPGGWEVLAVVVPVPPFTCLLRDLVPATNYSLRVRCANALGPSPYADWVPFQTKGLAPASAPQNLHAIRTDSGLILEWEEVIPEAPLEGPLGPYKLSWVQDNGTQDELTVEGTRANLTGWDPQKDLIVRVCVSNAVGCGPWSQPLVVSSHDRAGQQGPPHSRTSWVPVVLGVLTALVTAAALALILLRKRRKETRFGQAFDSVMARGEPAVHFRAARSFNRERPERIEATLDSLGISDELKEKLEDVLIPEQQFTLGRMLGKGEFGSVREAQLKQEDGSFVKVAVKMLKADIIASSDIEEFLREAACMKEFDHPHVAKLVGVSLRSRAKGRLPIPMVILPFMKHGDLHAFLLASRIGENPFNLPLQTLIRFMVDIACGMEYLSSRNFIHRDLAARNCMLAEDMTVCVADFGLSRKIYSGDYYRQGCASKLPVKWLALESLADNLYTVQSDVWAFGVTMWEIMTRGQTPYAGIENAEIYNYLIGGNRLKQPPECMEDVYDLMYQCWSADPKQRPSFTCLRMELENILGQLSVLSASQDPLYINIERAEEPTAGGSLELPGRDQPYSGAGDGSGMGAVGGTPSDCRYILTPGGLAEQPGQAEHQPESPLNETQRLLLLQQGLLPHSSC
How it was run: as §1

Row | Structure (SMILES) | IC50 [1] [nM] | FLT3/Mer ratio (FLT3 IC50/Mer IC50) [1] | IC50 [2] [nM]
1 | CNOc1cc(-c2cc([C@H]3CC[C@H](O)CC3)n3nc(N[C@@H](C)COC)ncc23)ccn1 [Compound 361] | ≤ 100 | +++ (“+++” represents a ratio of >100) | ≤ 100
2 | O[C@H]1CC[C@H](c2cc(-c3ccnc(N4CCOCC4)c3)c3cnc(N[C@H]4CCOC4)nn32)CC1 [Compound 362] | ≤ 100 | ++ (“++” represents a ratio of between 10 and 100) | ≤ 100
3 | O[C@H]1CC[C@H](c2cc(-c3ccnc(N4CCOCC4)c3)c3cnc(NCCC(F)(F)F)nn32)CC1 [Compound 363] | ≤ 100 | + (“+” represents a ratio of >2.0 and <10) | ≤ 100
4 | COC[C@H](C)Nc1ncc2c(-c3cnn([C@@H]4CCC(C(=O)OC(C)(C)C)C4)c3)cc([C@H]3CC[C@H](O)CC3)n2n1 (stereo partly drawn) [Compound 364] | ≤ 100 | +++ (“+++” represents a ratio of >100) | ≤ 100
5 | COC[C@H](C)Nc1ncc2c(-c3cnn([C@H]4CCC(C(=O)OC(C)(C)C)C4)c3)cc([C@H]3CC[C@H](O)CC3)n2n1 (stereo partly drawn) [Compound 365] | ≤ 100 | +++ (“+++” represents a ratio of >100) | ≤ 100
6 | COCC(C)Nc1ncc2c(-c3cnn(C(C)(C)C(=O)N4CCOC(C)(C)C4)c3)cc(C3CCC(O)CC3)n2n1 (stereo not drawn) [Compound 366] | ≤ 100 | +++ (“+++” represents a ratio of >100) | ≤ 100
7 | COC[C@H](C)Nc1ncc2c(-c3cnn(C(C)(C)C(=O)N4C[C@@H](C)O[C@H](C)C4)c3)cc([C@H]3CC[C@H](O)CC3)n2n1 [Compound 367] | ≤ 100 | +++ (“+++” represents a ratio of >100) | ≤ 100
8 | COC[C@H](C)Nc1ncc2c(-c3cnn(C[C@@H]4CCC(=O)N4)c3)cc([C@H]3CC[C@H](O)CC3)n2n1 [Compound 368] | ≤ 100 | +++ (“+++” represents a ratio of >100) | ≤ 100
9 | COC[C@H](C)Nc1ncc2c(-c3ccnc(OC4CCNCC4)c3)cc([C@H]3CC[C@H](O)CC3)n2n1 [Compound 369] | ≤ 100 | +++ (“+++” represents a ratio of >100) | ≤ 100
10 | CC(=O)N1CCN(Cc2ccc(-c3cc(C4CCC(O)CC4)n4nc(NC(C)CC(F)(F)F)ncc34)cc2)CC1 (stereo not drawn) [Compound 370] | ≤ 100 | + (“+” represents a ratio of >2.0 and <10) | ≤ 100
11 | COCC(C)Nc1ncc2c(C3CCCN(C(C)=O)C3)cc(C3CCC(O)CC3)n2n1 (stereo not drawn) [Compound 371] | ≤ 100 | +++ (“+++” represents a ratio of >100) | 100 to 1000
12 | COC[C@H](C)Nc1ncc2c([C@@H]3CCCN(C(C)=O)C3)cc([C@H]3CC[C@H](O)CC3)n2n1 [Compound 372] | 100 to 1000 | ++ (“++” represents a ratio of between 10 and 100) | 1000 to 10000
13 | COCC(C)Nc1ncc2c(C3CCN(c4ccnc(C)n4)C3)cc(C3CCC(O)CC3)n2n1 (stereo not drawn) [Compound 373] | ≤ 100 | +++ (“+++” represents a ratio of >100) | ≤ 100
14 | COCC(C)Nc1ncc2c(C3CCN(c4ccnc(C)n4)C3)cc(C3CCC(O)CC3)n2n1 (stereo not drawn) [Compound 374] | ≤ 100 | +++ (“+++” represents a ratio of >100) | ≤ 100
15 | COC[C@H](C)Nc1ncc2c([C@@H]3CCN(S(C)(=O)=O)C3)cc([C@H]3CC[C@H](O)CC3)n2n1 [Compound 375] | ≤ 100 | +++ (“+++” represents a ratio of >100) | ≤ 100
16 | COC[C@H](C)Nc1ncc2c([C@H]3CCN(S(C)(=O)=O)C3)cc([C@H]3CC[C@H](O)CC3)n2n1 [Compound 376] | ≤ 100 | +++ (“+++” represents a ratio of >100) | ≤ 100
17 | COC[C@H](C)Nc1ncc2c([C@H]3CCCN(c4ccnc(C)n4)C3)cc([C@H]3CC[C@H](O)CC3)n2n1 [Compound 377] | ≤ 100 | +++ (“+++” represents a ratio of >100) | ≤ 100
18 | COC[C@H](C)Nc1ncc2c([C@@H]3CCCN(c4ccnc(C)n4)C3)cc([C@H]3CC[C@H](O)CC3)n2n1 [Compound 378] | ≤ 100 | +++ (“+++” represents a ratio of >100) | 100 to 1000
19 | COCC(C)Nc1ncc2c(-c3cnn(CC4CCCO4)c3)cc(C3CCC(O)CC3)n2n1 (stereo not drawn) [Compound 379] | ≤ 100 | +++ (“+++” represents a ratio of >100) | ≤ 100
20 | COC[C@H](C)Nc1ncc2c(-c3cnn(CC4CCCO4)c3)cc([C@H]3CC[C@H](O)CC3)n2n1 (stereo partly drawn) [Compound 380] | ≤ 100 | +++ (“+++” represents a ratio of >100) | ≤ 100
21 | COC[C@H](C)Nc1ncc2c(-c3ccnc(C)c3)cc([C@H]3CC[C@@](C)(O)CC3)n2n1 [Compound 381] | ≤ 100 | +++ (“+++” represents a ratio of >100) | ≤ 100
22 | COC[C@H](C)Nc1ncc2c(-c3cnn(CCC#N)c3)cc([C@H]3CC[C@](C)(O)CC3)n2n1 [Compound 382] | ≤ 100 | +++ (“+++” represents a ratio of >100) | ≤ 100
23 | CNC(=O)c1cc(-c2cc([C@H]3CC[C@H](O)CC3)n3nc(N[C@@H](C)CC(F)(F)F)ncc23)ccn1 [Compound 384] | ≤ 100 | +++ (“+++” represents a ratio of >100) | ≤ 100
24 | CNC(=O)c1cc(-c2cc([C@H]3CC[C@H](O)CC3)n3nc(N[C@@H](C)COC(F)F)ncc23)cc(C)n1 [Compound 385] | ≤ 100 | +++ (“+++” represents a ratio of >100) | ≤ 100
